# Source: ChEMBL document CHEMBL1141101, “Design, synthesis, and biological activity of m-tyrosine-based 16- and 17-membered macrocyclic inhibitors of hepatitis C virus NS3 serine protease” (J Med Chem, 2005)
# Numbered stars: 1 amine (or outer) side, 2 acyl side, 3 side chain; on linkers, the order of the positions; unused ones are H or OH. Square brackets hold non-standard residues; d marks the D form. Peptide text beside a SMILES is read from it. * marks the point of attachment. Phe(3-CF3) = N[C@@H](Cc1cccc(C(F)(F)F)c1)C(=O)O; X1 = CCCC(N[*:1])C(=O)C(=O)[*:2]; Chg = N[C@H](C(=O)O)C1CCCCC1; Phg = N[C@H](C(=O)O)c1ccccc1; Boc = CC(C)(C)OC(=O)*
# Target: NS3 (Hepatitis C virus, UniProt A3EZJ3)
# Sequence (A3EZJ3 whole entry): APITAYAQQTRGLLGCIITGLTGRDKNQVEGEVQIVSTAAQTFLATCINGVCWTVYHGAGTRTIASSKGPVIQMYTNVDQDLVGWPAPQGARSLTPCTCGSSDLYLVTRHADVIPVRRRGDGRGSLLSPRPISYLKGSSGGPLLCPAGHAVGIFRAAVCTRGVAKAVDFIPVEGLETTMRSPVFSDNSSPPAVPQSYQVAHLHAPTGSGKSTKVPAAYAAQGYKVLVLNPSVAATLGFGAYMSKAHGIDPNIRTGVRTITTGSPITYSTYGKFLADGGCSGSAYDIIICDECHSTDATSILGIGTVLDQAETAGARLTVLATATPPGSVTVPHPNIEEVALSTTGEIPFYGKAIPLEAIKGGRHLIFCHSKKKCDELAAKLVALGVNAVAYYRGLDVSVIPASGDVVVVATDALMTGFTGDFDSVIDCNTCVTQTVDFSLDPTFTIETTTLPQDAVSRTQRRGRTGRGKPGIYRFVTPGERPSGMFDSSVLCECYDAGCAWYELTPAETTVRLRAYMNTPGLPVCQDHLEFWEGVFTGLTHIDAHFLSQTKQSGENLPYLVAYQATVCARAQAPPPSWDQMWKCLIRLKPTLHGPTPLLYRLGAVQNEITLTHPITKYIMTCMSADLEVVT
# Experiment: Binding affinity for HCV NS3 protease measured by HCV continuous assay
# Parameters: species or system Hepacivirus hominis
row,Ki,SMILES
1,5.5 µM,CCCC(NC(=O)[C@@H]1Cc2cccc(c2)OCCCCCCC(=O)N[C@@H](C2CCCCC2)C(=O)N1)C(=O)C(=O)NCC(=O)N[C@H](C(=O)OC(C)(C)C)c1ccccc1 (some centres not stated)
2,1.2 µM,CCCC(NC(=O)[C@@H]1Cc2cccc(c2)OCCCCCC(=O)N[C@@H](C2CCCCC2)C(=O)N1)C(=O)C(=O)NCC(=O)N[C@H](C(=O)O)c1ccccc1 (some centres not stated)
3,0.16 µM,CCCC(NC(=O)[C@@H]1Cc2cccc(c2)OCCCCCCC(=O)N[C@@H](C2CCCCC2)C(=O)N1)C(=O)C(=O)NCC(=O)N[C@H](C(=O)O)c1ccccc1 (some centres not stated)
4,0.31 µM,CCCC(NC(=O)[C@@H]1Cc2cccc(c2)OCCCCCCC(=O)N[C@@H](C2CCCCC2)C(=O)N1)C(=O)C(=O)NCC(=O)N[C@H](C(=O)N(C)C)c1ccccc1 (some centres not stated)
5,> 8.9 µM,CCCC(NC(=O)[C@@H]1Cc2cccc(c2)OCCCCCC(=O)N[C@@H](C2CCCCC2)C(=O)N1)C(=O)C(=O)NCC(=O)N[C@H](C(=O)OC(C)(C)C)c1ccccc1 (some centres not stated)
6,0.17 µM,CCCC(NC(=O)[C@@H]1Cc2cccc(c2)OCCCCCCC(=O)N[C@@H](C2CCCCC2)C(=O)N1)C(=O)C(=O)NCC(=O)N[C@H](C(=O)NC)c1ccccc1 (some centres not stated)
7,8 µM,CCCC(NC(=O)[C@H](Cc1cccc(C(F)(F)F)c1)NC(=O)[C@@H](NC(=O)OC(C)(C)C)C1CCCCC1)C(=O)C(=O)NCC(=O)N[C@H](C(N)=O)c1ccccc1 (some centres not stated) (Boc-[Chg][Phe(3-CF3)][X1]G[Phg]-NH2)
